Here are results for 43 compounds from patent publication US11084826B2, “RSV antiviral pyrazolo- and triazolo-pyrimidine compounds” (Janssen Sciences Ireland Unlimited Company, priority 2015, dated 2021).

Series [1] can be described thus: Cytotoxicity in HeLa cells, ATP content measured with the ATPlite kit. The class given is cell-based. As to conditions: human, TOX HELA pCC50. Here is the method: (§1) Black 384-well clear-bottom microtiter plates (Corning, Amsterdam, The Netherlands) were filled via acoustic drop ejection using the echo liquid handler (Labcyte, Sunnyvale, Calif.). 200 nL of compound stock solutions (100% DMSO) were transferred to the assay plates. 9 serial 4-fold dilutions of compound were made, creating per quadrant the same compound concentration. The assay was initiated by adding 10 μL of culture medium to each well (RPMI medium without phenol red, 10% FBS-heat inactivated, 0.04% gentamycin (50 mg/mL). All addition steps are done by using a multidrop dispenser (Thermo Scientific, Erembodegem, Belgium). Next, rgRSV224 virus (MOI=1) diluted in culture medium was added to the plates. rgRSV224 virus is an engineered virus that includes an additional GFP gene (Hallak LK, Spillmann D, Collins PL, Peeples Me. Glycosaminoglycan sulfation requirements for respiratory syncytial virus infection; Journal of virology (2000), 74(22), 10508-13) and was in-licensed from the NIH (Bethesda, Md., USA). Finally, 20 μL of a HeLa cell suspension (3,000 cells/well) were plated. Medium, virus- and mock-infected controls were included in each test. The wells contain 0.05% DMSO per volume. Cells were incubated at 37° C. in a 5% CO2 atmosphere. Three days post-virus exposure, viral replication was quantified by measuring GFP expression in the cells by an in house developed MSM laser microscope (Tibotec, Beerse, Belgium). The EC50 was defined as the 50% inhibitory concentration for GFP expression. In parallel, compounds were incubated for three days in a set of white 384-well microtiter plates (Corning) and the cytotoxicity of compounds in HeLa cells was determined by measuring the ATP content of the cells using the ATPlite kit (Perkin Elmer, Zaventem, Belgium) according to the manufacturer's instructions. The CC50 was defined as the 50% concentration for cytotoxicity.
In general terms: In ATP-based viability assays light output follows the ATP content of the culture.

The subject of series [2] is rgRSV224 virus. The series can be described thus: Antiviral activity: inhibition of rgRSV224 (GFP-expressing RSV) replication in HeLa cells, GFP expression read-out. The class given is cell-based, respiratory syncytial virus (RSV). Particulars: human respiratory syncytial virus, HeLa, read-out: RSV HELA pEC50, rgRSV224 virus (MOI=1) in HeLa cells, GFP read-out (converted). The procedure: as §1

What is called CC50 is the concentration that lowers cell viability or growth by half. A high value points to lower toxicity to the cells. In turn, `CCc1cc(C(=O)N2CCc3ccccc3[C@H]2C)nc2cc(-c3ccc(/C=C/C(=O)O)cc3F)nn12` [Compound M15] yielded a CC50 at 3 days in series [1] above 20400 nM. In series [2], the EC50 was 15.1 nM.
Taken in the same sequence, the figures for `CCc1cc(C(=O)N2CCCCC[C@H]2C)nc2cc(-c3ccc(N4CC(C(=O)O)C4)cc3F)nn12` [Compound W1] were above 25100 nM and 64.6 nM.
As to `CCc1cc(C(=O)N2CCCCC[C@H]2C)nc2cc(-c3ccc(-n4cnc(C(=O)O)c4)cc3F)nn12` [Compound W29], the CC50 at 3 days in series [1] was above 100000 nM. Also, the EC50 in series [2] was 363 nM.
Regarding `CCc1cc(C(=O)N2CCCc3ccccc3C2C)nc2cc(-c3ccc(/C=C/C(=O)O)cc3F)nn12` (centres unmarked) [Compound M18], the CC50 at 3 days in series [1] is above 25100 nM. The EC50 in series [2] was 77.6 nM.
In series [1], `CCc1cc(C(=O)N2CCc3ccsc3C2C)nc2cc(-c3ccc(-c4ccc(C(=O)O)cn4)cc3F)nn12` (racemic) [Compound F55] yielded a half-maximal cytotoxic concentration (CC50) at 3 days above 100000 nM. In addition, in series [2], the EC50 was 120 nM.
Taken in the same sequence, the figures for `CCc1cc(C(=O)N2CCc3ccccc3[C@H]2C)nc2cc(-c3ccc(-c4ccc(C(=O)O)cn4)cc3F)nn12` [Compound F23] were above 25100 nM and 40.7 nM.
On the same counts, the results for `CCc1cc(C(=O)N2CCc3sc(C)cc3C2C)nc2cc(-c3ccc(-c4ccc(C(=O)O)cn4)cc3F)nn12` (racemic) [Compound F58] are 26300 nM and 170 nM.
`CCc1cc(C(=O)N2CCn3cccc3[C@H]2C)nc2cc(-c3ccc([C@H]4C[C@@H]4C(=O)O)cc3F)nn12` (relative stereo) [Compound O19] gave a 50% cytotoxic concentration (CC50) at 3 days in series [1] of 91200 nM. For the same compound, in series [2], the EC50 is 30.9 nM.
In turn, `CCCC(C)N(CC)C(=O)c1cc(CC)n2nc(-c3ccc(C4C[C@H]4C(=O)O)cc3F)cc2n1` (mixture of isomers) [Compound O13] showed a half-maximal cytotoxic concentration (CC50) at 3 days in series [1] of 45700 nM. For the same compound, in series [2], the EC50 is 141 nM.
On the same counts, the results for `CCc1cc(C(=O)N2CCCCC[C@H]2C)nc2cc(-c3ccc(N(C)c4cc(C(=O)O)nn4C)cc3F)nn12` [Compound W21] are 21900 nM and 1020 nM.
Take `CCc1cc(C(=O)N2CCCCCC2C)nc2cc(-c3ccc(-c4cnc(C)n4C)cc3F)nn12` (centres unmarked) [Compound F11]: the CC50 at 3 days in series [1] is above 25100 nM. Further, the EC50 in series [2] is 1350 nM.
Turning to `CCc1cc(C(=O)N2CCCCCC2C)nc2cc(-c3ccc(NS(=O)(=O)C4CC4)cc3F)nn12` (centres unmarked) [Compound D2], in series [1], the cytotoxic concentration (CC50) at 3 days is above 50100 nM. For the same compound, the EC50 in series [2] was 603 nM.
On the same counts, the results for `CCc1cc(C(=O)N2CCCCCC2C)nc2cc(-c3ccc(-c4cncn4C)cc3F)nn12` (centres unmarked) [Compound F13] are above 25100 nM and 562 nM.
As for `CCc1cc(C(=O)N2CCCCC[C@H]2C)nc2cc(-c3ccc(C4CC5(CC(C(=O)O)C5)C4)cc3F)nn12` (some centres unmarked) [Compound F47], in series [1], the midpoint of cytotoxicity, the CC50 at 3 days, lay at 46800 nM. Also, the EC50 in series [2] is 245 nM.
In series [1], `CCc1cc(C(=O)N2CCCCC[C@H]2C)nc2cc(-c3ccc(-c4ccnc(C(=O)O)c4)cc3F)nn12` [Compound F25] showed a CC50 at 3 days of 13500 nM. In addition, the EC50 in series [2] is 43.7 nM.
On the same counts, the results for `CCc1cc(C(=O)N2CCCCCC2C)nc2cc(-c3ccc(-c4cccnc4)cc3)nn12` (centres unmarked) [Compound F2] are 38900 nM and 2950 nM.
`CCc1cc(C(=O)N2CCCCC[C@H]2C)nc2cc(-c3ccc(N(C)CC(=O)O)cc3F)nn12` [Compound W19]: the CC50 at 3 days in series [1] was above 100000 nM. The EC50 in series [2] was 263 nM.
For `CCc1cc(C(=O)N2CCCCC[C@H]2C)nc2cc(-c3ccc(-c4ccc(C(=O)O)nc4)cc3F)nn12` [Compound F24], in series [1], the midpoint of cytotoxicity, the CC50 at 3 days, lay at 12600 nM. For the same compound, in series [2], the EC50 is 69.2 nM.
On the same counts, the results for `CC1c2ccsc2CCN1C(=O)c1cc(C2(C)CC2)n2nc(-c3ccc4c(c3F)OCC(C(=O)O)=C4)cc2n1` (racemic) [Compound F67] are 67600 nM and 39.8 nM.
In series [1], `CCc1cc(C(=O)N2CCCCC[C@H]2C)nc2cc(-c3ccc([C@H]4CC[C@H](C(=O)O)CC4)cc3F)nn12` [Compound F37] gave a 50% cytotoxic concentration (CC50) at 3 days of 38000 nM. In addition, the EC50 in series [2] is 182 nM.
`CCc1cc(C(=O)N2CCCCCC2C)nc2cc(C3CCCCC3)nn12` (centres unmarked) [Compound A5] gave a CC50 at 3 days in series [1] of 33100 nM. The EC50 in series [2] is 4790 nM.
With `C[C@@H]1c2ccccc2CCN1C(=O)c1cc(C2(C)CC2)n2nc(-c3ccc(C4C[C@H]4C(=O)O)cc3F)cc2n1` (mixture of isomers) [Compound O8], in series [1], the cytotoxic concentration (CC50) at 3 days is 49000 nM. Moreover, in series [2], the EC50 is 11.7 nM.
Taken in the same sequence, the figures for `C[C@@H]1CCCCCN1C(=O)c1cc(C2(C)CC2)n2nc(-c3cccc([C@H]4C[C@@H]4C(=O)O)c3F)cc2n1` (racemic) [Compound O9] were 89100 nM and 110 nM.
Regarding `C[C@@H]1CCCCCN1C(=O)c1cc(C2CC2)n2nc(-c3cccc(/C=C/C(=O)O)c3F)cc2n1` [Compound M28], the CC50 at 3 days in series [1] was 17800 nM. Further, the EC50 in series [2] is 93.3 nM.
Taken in the same sequence, the figures for `C[C@@H]1CCCCCN1C(=O)c1cc(C2(C)COC2)n2nc(-c3ccc4c(c3F)OCC(C(=O)O)=C4)cc2n1` (racemic) [Compound F62] were above 25100 nM and 57.5 nM.
For the compound `C[C@@H]1c2ccsc2CCN1C(=O)c1cc(C2(C)CC2)n2nc(-c3ccc(N4CC[C@H](C(=O)O)C4)cc3F)cc2n1` [Compound W44], the CC50 at 3 days in series [1] is 49000 nM. Also, the EC50 in series [2] was 8.71 nM.
Taken in the same sequence, the figures for `CCc1cc(C(=O)N2CCCCCC2C)nc2cc(-c3ccc(-c4cnn(C5CC5)c4)cc3F)nn12` (centres unmarked) [Compound F12] were above 25100 nM and 1380 nM.
Taken in the same sequence, the figures for `CCc1cc(C(=O)N2CCCCC[C@H]2C)nc2cc(-c3ccc(NC4(C(=O)O)CC4)cc3F)nn12` [Compound W16] were above 100000 nM and 269 nM.
On the same counts, the results for `CCCCC(C)N(C)C(=O)c1cc(CC)n2nc(-c3ccccc3F)cc2n1` (centres unmarked) [Compound A17] are 40700 nM and 1510 nM.
Compound `CCc1cc(C(=O)N2CCCCC[C@H]2C)nc2cc(-c3ccc(N4CCC[C@@H](C(=O)O)C4)cc3F)nn12` [Compound W4] had a cytotoxic concentration (CC50) at 3 days in series [1] of 89100 nM. Moreover, the EC50 in series [2] was 105 nM.
On the same counts, the results for `C[C@@H]1c2ccccc2CCN1C(=O)c1cc(N2CCCC2)n2nc(-c3ccc(/C=C/C(=O)O)cc3F)cc2n1` [Compound M16] are 16600 nM and 13.2 nM.
On the same counts, the results for `CCc1cc(C(=O)N2CCCCCC2C)nc2cc(-c3ccc(C4CC4C(=O)O)cc3F)nn12` (centres unmarked) [Compound O1] are above 25100 nM and 123 nM.
On the same counts, the results for `CCc1cc(C(=O)N2CCCCC[C@H]2C)nc2cc(-c3ccc(-c4cnc(C(=O)O)c(F)c4)cc3F)nn12` [Compound F19] are 36300 nM and 97.7 nM.
For `CCc1cc(C(=O)N2CCCCCC2C)nc2cc(-c3ccc(/C=C(\C)C(=O)O)cc3F)nn12` (centres unmarked) [Compound M13], the CC50 at 3 days in series [1] was above 25100 nM. Further, in series [2], the EC50 is 224 nM.
Taken in the same sequence, the figures for `C[C@@H]1CCCCCN1C(=O)c1cc(C2CCC2)n2nc(-c3ccc(-c4ccc(C(=O)O)cn4)cc3F)cc2n1` [Compound F32] were 32400 nM and 28.2 nM.
On the same counts, the results for `CCCC(C)N(CC)C(=O)c1cc(CC)n2nc(-c3ccc([C@H]4C[C@@H]4C(=O)O)cc3F)cc2n1` (relative stereo) [Compound O14] are 66100 nM and 219 nM.
On the same counts, the results for `CCc1cc(C(=O)N2CCn3cccc3C2C)nc2cc(-c3ccc4c(c3F)OCC(C(=O)O)=C4)nn12` (racemic) [Compound F61] are above 100000 nM and 45.7 nM.
In series [1], `CCc1cc(C(=O)N2CCCCC[C@H]2C)nc2cc(-c3ccc(-c4cc(=O)[nH]o4)cc3F)nn12` [Compound X1] had a CC50 at 3 days above 25100 nM. In series [2], the EC50 was 93.3 nM.
For the compound `CCc1cc(C(=O)N2CCCC3(CC=CC3)C2C)nc2cc(-c3ccc(-c4ccc(C(=O)O)cn4)cc3F)nn12` (racemic) [Compound F50], the midpoint of cytotoxicity in series [1], the CC50 at 3 days, lay at 60300 nM. Also, in series [2], the EC50 is 324 nM.
In series [1], `CCc1cc(C(=O)N2CCCCC[C@H]2C)nc2cc(-c3ccc4ccc(C(=O)O)nc4c3F)nn12` [Compound F45] gave a CC50 at 3 days of 91200 nM. Also, the EC50 in series [2] is 43.7 nM.
For `C[C@@H]1CCCCCN1C(=O)c1cc(C2CC2)n2nc(-c3ccc4c(c3F)OCC(C(=O)O)=C4)cc2n1` [Compound F38], in series [1], the CC50 at 3 days is 36300 nM. For the same compound, the EC50 in series [2] is 51.3 nM.
In the case of `CCc1cc(C(=O)N2CCCCC[C@H]2C)nc2cc(-c3cc4ccc(C(=O)O)nc4cc3F)nn12` [Compound F33], the midpoint of cytotoxicity in series [1], the CC50 at 3 days, lay at 66100 nM. Further, in series [2], the EC50 is 91.2 nM.
`CCCCc1nc(Cl)c(-c2cc3nc(C(=O)N4CCCCCC4C)cc(CC)n3n2)[nH]1` (centres unmarked) [Compound A22] returned a half-maximal cytotoxic concentration (CC50) at 3 days in series [1] above 25100 nM. In series [2], the EC50 was 603 nM.
